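How tested: cells in 96-well plates exposed to compound for 48 hours at five concentrations. TGI denotes the concentration required for complete inhibition of growth.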

What all share (assay): growth of human tumour cells (NCI), 48 h
The test system of assay [1] is KM12 colon.
The test system of assay [2] is SK-MEL-5 melanoma.
Assay [3] concerns PC-3 prostate.
In assay [4] the test system is COLO 205 colon.
For assay [5], the system named is DU-145 prostate.
Assay [6] deals with MOLT-4 leukemia.
Assay [7] relates to HOP-92 NSCLC.
Assay [8] deals with 786-0 renal.
In assay [9] the test system is MDA-MB-231 breast.

For `CC(=O)NC1C(OCc2ccccc2)OC(CO)C(O)C1OCC(=O)NC(C)C(=O)NC(CCC(=O)NCCCCCC(=O)Nc1ccc2c(c1)CN1C(=O)c3ccccc3C1=N2)C(N)=O` (stereo unspecified), the TGI in [1], in assay [2], in assay [3], in assay [4], in assay [5] and in assay [6] was over 100 µM in each case. The figures for the TGI in [7], in assay [8] and in assay [9] were 90.9 µM, over 100 µM and over 100 µM, respectively.

Turning to `Cc1cc(S(=O)(=O)O)ccc1N=Nc1ccc(N=Nc2c(O)ccc3ccccc23)c(C)c1`, the TGI in assay [1] is 83.3 µM; in [2] it was over 100 µM; in assay [3] it was over 100 µM; in assay [4] it was over 100 µM; in assay [5] it was over 100 µM; in [6] it was over 100 µM. Further, the values for the TGI in [7], in assay [8] and in assay [9] were over 100 µM, 61.3 µM and over 100 µM, respectively.

With `Cc1ccccc1NC(=S)N=Nc1c(O)[nH]c2ccccc12`, the TGI in assay [1], in [2], in assay [3], in [4], in assay [5] and in assay [6] was over 100 µM each time. The TGI in assay [7], in assay [8] and in assay [9] was over 100 µM in each case.

In the case of `C=CCC1NCCC2=C1C(S(=O)(=O)c1ccc(C)cc1)c1ccccc12` (stereo unspecified), the TGI in assay [1] is 22.6 µM; in assay [2], 27.6 µM; in [3], 22.2 µM; in assay [4], 4.29 µM; in assay [5] it was 24.3 µM; in [6], over 100 µM. The TGI stood at 25.7 µM in assay [7], 25.7 µM in assay [8] and 25.5 µM in assay [9].

In the case of `O=C(NCCO)c1c(O)c2ccccc2[nH]c1=O`, the TGI in assay [1], in [2], in assay [3], in assay [4], in assay [5] and in [6] was over 100 µM in each case. Besides, the TGI in assay [7], in [8] and in assay [9] was over 100 µM in each case.

Regarding `COC(=O)C[C@H](COCc1ccccc1)NC(=O)C[C@H](COCc1ccccc1)NC(=O)C[C@H](COCc1ccccc1)NC(=O)OC(C)(C)C`, the TGI was over 100 µM in [1]; over 100 µM in assay [2]; 41.2 µM in [3]; over 100 µM in assay [4]; over 100 µM in [5]; over 100 µM in [6]. In addition, the results for the TGI in assay [7], in assay [8] and in [9] were 73.5 µM, 72.9 µM and over 100 µM, respectively.

Take `Cc1ccccc1NC(=S)N/N=C(/c1ccccc1)c1ccccn1`: the TGI in assay [1] amounted to 14 µM; in [2], 3.93 µM; in assay [3] it was 13.6 µM; in [4], 19.1 µM; in [5], 18.3 µM; in [6] it was 3.98 µM. In addition, the TGI was 13.2 µM in [7], 10.8 µM in assay [8] and 12.7 µM in assay [9].

For `NCCCCNCCCN`, the TGI in assay [1], in assay [2], in [3], in assay [4], in assay [5] and in assay [6] was over 100 µM in each case. In addition, the TGI in [7], in [8] and in [9] was over 100 µM each time.

For the compound `COc1ccc(N2C(=O)C3c4[nH]c5ccccc5c4C4CCC(C(C)C)CC4C3C2=O)cc1` (stereo unspecified), the TGI in assay [1], in assay [2], in [3], in assay [4], in assay [5] and in [6] was over 100 µM in each case. For the same compound, the TGI in assay [7], in assay [8] and in [9] was over 100 µM in each case.

On to `CN(N)C(=O)NCCCl`, for which the TGI in [1], in assay [2], in [3], in assay [4], in assay [5] and in assay [6] was over 100 µM in each case. For the same compound, the TGI in [7], in [8] and in assay [9] was over 100 µM throughout.

Regarding `CCOC(OCC)C(CCc1ccccc1)c1c(N)nc(N)[nH]c1=O` (stereo unspecified), the TGI in assay [1] is over 100 µM; in assay [2], over 100 µM; in [3], over 100 µM; in assay [4], 49.3 µM; in assay [5], over 100 µM; in assay [6], over 100 µM. For the same compound, the TGI in assay [7] was 86.8 µM; in [8], over 100 µM; in [9] it was over 100 µM.

Regarding `Cc1cccc2c(N)c3cccc(C(=O)NCC[N+](C)(C)Cc4sc(N5CCOCC5)nc4[N+](=O)[O-])c3nc12`, the TGI was 17.6 µM in assay [1]; over 100 µM in assay [2]; 16.8 µM in assay [3]; over 100 µM in assay [4]; over 100 µM in [5]; over 100 µM in [6]. Further, the TGI in assay [7] is over 100 µM; in assay [8], 6.24 µM; in [9] it was 13.1 µM.

Regarding `CC(=O)O[C@H]1CC[C@@]2(C)C(=CC[C@@H]3[C@@H]2CC[C@]2(C)c4nc(N)c(C#N)cc4C[C@@H]32)C1`, the TGI in [1] was over 100 µM; in assay [2], 43.4 µM; in [3], over 100 µM; in [4], over 100 µM; in assay [5], over 100 µM; in assay [6], over 100 µM. Further, the figures for the TGI in assay [7], in assay [8] and in assay [9] were over 100 µM, over 96 µM and over 100 µM, respectively.

For `C=C(C)CC1=C(C(=S)NCCO[Si](C)(C)C(C)(C)C)C(OCC)(OCC)C1=O`, the TGI is 45.9 µM in assay [1]; 51 µM in assay [2]; 29.4 µM in assay [3]; 75 µM in assay [4]; 76.3 µM in assay [5]; over 100 µM in [6]. Further, the values for the TGI in assay [7], in assay [8] and in assay [9] were over 100 µM, 33.1 µM and 67.5 µM, respectively.

Regarding `O=C(NN=C1CCCCC1)Nc1ccccc1Cl`, the TGI in assay [1], in [2], in [3], in [4], in [5] and in assay [6] was over 100 µM throughout. Moreover, the figures for the TGI in [7], in [8] and in assay [9] were 94.3 µM, over 100 µM and over 100 µM, respectively.

As for `c1ccc(C(=NNc2nc3ccccc3[nH]2)c2ccccn2)nc1`, the TGI was over 80.3 µM in assay [1]; 1.69 µM in assay [2]; 5.43 µM in [3]; 16.1 µM in [4]; over 100 µM in assay [5]; 0.062 µM in [6]. The TGI is 0.182 µM in [7], over 100 µM in assay [8] and over 53.6 µM in assay [9].

Take `Sc1nnc(-c2ccccc2Nc2ccccc2-c2nnc(S)n2-c2ccccc2)n1-c1ccccc1`: the TGI was over 100 µM in assay [1]; 80.9 µM in assay [2]; over 100 µM in assay [3]; over 100 µM in assay [4]; over 100 µM in assay [5]; 78.9 µM in assay [6]. For the same compound, the TGI in [7] was 48.2 µM; in assay [8], over 100 µM; in assay [9], 89.6 µM.

Take `O=[N+]([O-])c1cccc2nc3ccccc3c(NCCC[N+]3([O-])CCCCC3)c12`: the TGI in [1] was 2.07 µM; in [2] it was 1.35 µM; in [3], 0.649 µM; in [4], 0.317 µM; in assay [5] it was 1.9 µM; in assay [6] it was over 100 µM. Also, the TGI is 0.746 µM in assay [7], 3.34 µM in assay [8] and 1.16 µM in [9].

With `C1OCN2c3nonc3N3COCN4c5nonc5N1C2C43` (stereo unspecified), the TGI in assay [1], in [2], in assay [3], in assay [4], in assay [5] and in assay [6] was over 100 µM each time. The TGI in assay [7], in [8] and in assay [9] was over 100 µM throughout.

Turning to `O=C1c2ccccc2C2(c3ccc(Cl)cc3)NCc3ccccc3CN12` (stereo unspecified), the TGI was 44.2 µM in assay [1]; 29.5 µM in assay [2]; 51.3 µM in assay [3]; 28.3 µM in assay [4]; 50.3 µM in assay [5]; 91.7 µM in assay [6]. Moreover, the TGI in assay [7] was 56 µM; in assay [8] it was 26.4 µM; in assay [9], over 100 µM.

Turning to `COc1ccc(N2CCN(c3ccc4c(c3)NCC(=O)N4)CC2)cc1`, the TGI in assay [1] is 49 µM; in [2] it was over 100 µM; in assay [3], over 100 µM; in assay [4] it was over 100 µM; in assay [5], over 100 µM; in [6], over 100 µM. Further, the values for the TGI in assay [7], in assay [8] and in assay [9] were 63.5 µM, over 100 µM and over 100 µM, respectively.

As to `c1ccc([C@H]2CN3CCSC3=N2)cc1`, the TGI in [1], in assay [2], in [3], in assay [4], in [5] and in assay [6] was over 100 µM in each case. Also, the TGI in assay [7], in assay [8] and in assay [9] was over 100 µM in each case.

Take `O=C1Nc2ccccc2NC1C1OC(c2ccccc2)=CC1=O` (stereo unspecified): the TGI in assay [1], in assay [2], in assay [3], in assay [4], in assay [5] and in assay [6] was over 100 µM in each case. For the same compound, the TGI in assay [7], in assay [8] and in [9] was over 100 µM in each case.

For the compound `COC(=O)C1=C(OC(=O)/C(=C/c2ccc(Cl)cc2)c2ccccc2)C(C(=O)OC)[C@@]2(O)[C@@H](C(=O)OC)[C@H](C)C[C@@H]1[C@@H]2C(=O)OC` (stereo partly specified), the TGI in assay [1], in [2], in assay [3], in assay [4], in [5] and in assay [6] was over 100 µM in each case. Further, the TGI in [7], in assay [8] and in assay [9] was over 100 µM in each case.

Turning to `Cc1ccc(S(=O)(=Nc2ccccc2)C(C(C)C)C(C)(C)Cl)cc1` (stereo unspecified), the TGI in [1] was over 50 µM; in [2], 16.7 µM; in [3], over 50 µM; in [4], 7.56 µM; in assay [5] it was over 50 µM; in [6] it was 32.3 µM. For the same compound, the TGI in [7], in assay [8] and in assay [9] was over 50 µM throughout.

For the compound `C=C1c2nc3ccccc3n2C=C(c2ccc(Cl)cc2)N1c1ccccc1`, the TGI in assay [1] was 24.7 µM; in assay [2], over 100 µM; in assay [3] it was over 100 µM; in assay [4] it was over 100 µM; in assay [5] it was over 100 µM; in assay [6], over 100 µM. Moreover, the TGI is over 100 µM in assay [7], 26 µM in [8] and over 100 µM in [9].

Take `Cc1ccc([N+](=O)[O-])cc1S(=O)(=O)Nc1ccc(C2=NN(c3ccc([N+](=O)[O-])cc3[N+](=O)[O-])C(c3ccccc3O)C2)cc1` (stereo unspecified): the TGI in assay [1] was over 100 µM; in assay [2] it was 61.1 µM; in assay [3], over 100 µM; in assay [4] it was over 100 µM; in assay [5], over 100 µM; in [6], over 100 µM. Also, the TGI was over 100 µM in assay [7], over 100 µM in [8] and 86.6 µM in assay [9].

Take `Clc1ccc(OCC2NC3C=CC32)cn1` (stereo unspecified): the TGI in [1], in [2], in assay [3], in assay [4], in assay [5] and in [6] was over 100 µM throughout. The TGI in [7], in [8] and in assay [9] was over 100 µM each time.

Take `O=C1C=CC2(O[C@@H](Cc3ccccc3)[C@H](Cc3ccccc3)O2)C(SC(=O)c2ccccc2)C1` (stereo partly specified): the TGI came to 6.82 µM in assay [1]; 3.16 µM in assay [2]; 3.69 µM in [3]; 3.14 µM in [4]; 11.8 µM in [5]; 0.651 µM in assay [6]. Further, the TGI was determined as 3.05 µM in assay [7], 0.399 µM in assay [8] and 6.39 µM in assay [9].

The values above are taken from PubChem BioAssay (NCI).
